Measured values published in PubChem BioAssay AID248 (DTP/NCI, 2004).
Several values for one entry are separate records, joined by “and”; a condition that tells them apart may be missing. Equal entries are not always repeated. Inconclusive results and toxic doses are left out. No stated cut-off is given here; in the data, active means T/C of 150% or more; inactive means T/C below 125%.

Test system: L1210 leukemia ip in BDF1 mice, survival T/C
Assay: NCI In Vivo Anticancer Drug Screen. Data for tumor model L1210 Leukemia (intraperitoneal) in B6D2F1 (BDF1) mice
Settings: endpoint: mean survival time, higher = longer survival
Procedure, shortened: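 Mice bearing the transplanted tumor received compound or vehicle. Survival of the treated group was divided by that of the vehicle-treated control group to give the ratio.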

[1] = dose: 100.0 mg/kg/injection, schedule: Q01DX009 (ip), vehicle: Klucel (hydroxypropylcellulose) (HPC)
[2] = dose: 100.0 mg/kg/injection, schedule: Q04DX003 (ip), vehicle: Klucel (hydroxypropylcellulose) (HPC)
[3] = dose: 200.0 mg/kg/injection, schedule: Q01DX009 (ip), vehicle: Klucel (hydroxypropylcellulose) (HPC)
[4] = dose: 200.0 mg/kg/injection, schedule: Q04DX003 (ip), vehicle: Klucel (hydroxypropylcellulose) (HPC)
[5] = dose: 400.0 mg/kg/injection, schedule: Q01DX009 (ip), vehicle: Klucel (hydroxypropylcellulose) (HPC)
[6] = dose: 400.0 mg/kg/injection, schedule: Q04DX003 (ip), vehicle: Klucel (hydroxypropylcellulose) (HPC)
[7] = dose: 100.0 mg/kg/injection, schedule: Q01DX001 (ip), vehicle: saline
[8] = dose: 200.0 mg/kg/injection, schedule: Q01DX001 (ip), vehicle: saline
[9] = dose: 400.0 mg/kg/injection, schedule: Q01DX001 (ip), vehicle: saline
[10] = dose: 5.0 mg/kg/injection, schedule: Q01DX001 (ip), vehicle: saline
[11] = dose: 10.0 mg/kg/injection, schedule: Q01DX001 (ip), vehicle: saline
[12] = dose: 20.0 mg/kg/injection, schedule: Q01DX001 (ip), vehicle: saline
[13] = dose: 25.0 mg/kg/injection, schedule: Q04DX003 (ip), vehicle: saline
[14] = dose: 40.0 mg/kg/injection, schedule: Q01DX001 (ip), vehicle: saline
[15] = dose: 50.0 mg/kg/injection, schedule: Q04DX003 (ip), vehicle: saline
[16] = dose: 100.0 mg/kg/injection, schedule: Q04DX003 (ip), vehicle: saline
[17] = dose: 100.0 mg/kg/injection, schedule: Q01DX009 (ip), vehicle: saline with Tween-80
[18] = dose: 100.0 mg/kg/injection, schedule: Q04DX003 (ip), vehicle: saline with Tween-80
[19] = dose: 200.0 mg/kg/injection, schedule: Q01DX009 (ip), vehicle: saline with Tween-80
[20] = dose: 200.0 mg/kg/injection, schedule: Q04DX003 (ip), vehicle: saline with Tween-80
[21] = dose: 400.0 mg/kg/injection, schedule: Q01DX009 (ip), vehicle: saline with Tween-80
[22] = dose: 400.0 mg/kg/injection, schedule: Q04DX003 (ip), vehicle: saline with Tween-80
[23] = dose: 100.0 mg/kg/injection, schedule: Q04DX002 (ip), vehicle: Klucel (hydroxypropylcellulose) (HPC)
[24] = dose: 200.0 mg/kg/injection, schedule: Q04DX002 (ip), vehicle: Klucel (hydroxypropylcellulose) (HPC)
[25] = dose: 400.0 mg/kg/injection, schedule: Q04DX002 (ip), vehicle: Klucel (hydroxypropylcellulose) (HPC)
[26] = dose: 25.0 mg/kg/injection, schedule: Q01DX009 (ip), vehicle: Klucel (hydroxypropylcellulose) (HPC)
[27] = dose: 50.0 mg/kg/injection, schedule: Q01DX001 (ip), vehicle: saline
[28] = dose: 100.0 mg/kg/injection, schedule: Q04DX002 (ip), vehicle: saline
[29] = dose: 25.0 mg/kg/injection, schedule: Q01DX009 (ip), vehicle: saline
[30] = dose: 50.0 mg/kg/injection, schedule: Q01DX009 (ip), vehicle: saline
[31] = dose: 100.0 mg/kg/injection, schedule: Q01DX009 (ip), vehicle: saline

Measured: T/C

CC(=O)NCc1cc(C)c(C)cc1C
inactive: [1] 100 % of control | [2] 101 % of control | [3] 104 % of control | [4] 97 % of control | [5] 96 % of control | [6] 109 % of control

O/N=C1/CCCCc2ccccc21
inactive: [7] 105 % of control | [8] 110 % of control | [9] 96 % of control

O=[N+]([O-])c1ccc(N/N=C\c2ccc(OCCOCCCl)cc2)c([N+](=O)[O-])c1
inactive: dose: 25.0 mg/kg/injection, schedule: Q01DX001 (ip), vehicle: saline with Tween-80 94 % of control | dose: 50.0 mg/kg/injection, schedule: Q01DX001 (ip), vehicle: saline with Tween-80 86 % of control | dose: 100.0 mg/kg/injection, schedule: Q01DX001 (ip), vehicle: saline with Tween-80 94 % of control and 92 % of control

O=C(O)/C=C/C(=O)NCCNC(=O)/C=C/C(=O)O
inactive: [2] 96 % of control | [4] 93 % of control | [6] 96 % of control

CC(C)[P+](c1ccccc1)(c1ccccc1)c1ccccc1
inactive: [10] 108 % of control | [11] 111 % of control | dose: 16.25 mg/kg/injection, schedule: Q01DX009 (ip), vehicle: saline 100 % of control | [12] 118 % of control | [13] 113 % of control | [14] 113 % of control | [15] 103 % of control | dose: 65.0 mg/kg/injection, schedule: Q04DX003 (ip), vehicle: saline 107 % of control and 116 % of control | [7] 108 % of control | [16] 118 % of control | dose: 150.0 mg/kg/injection, schedule: Q04DX003 (ip), vehicle: saline 90 % of control

C(=C1c2ccccc2-c2ccccc21)c1ccccc1
inactive: [17] 100 % of control | [18] 100 % of control | [19] 95 % of control | [20] 100 % of control | [21] 91 % of control | [22] 92 % of control

CCOC(=O)CCCc1c(C)[nH]c2ccc(Cl)cc12
inactive: [23] 98 % of control | [24] 102 % of control | [25] 91 % of control

CCOC(=O)C(CCSC)(CCN(C)Cc1ccccc1)C(=O)OCC
inactive: [10] 102 % of control | [11] 96 % of control | [12] 96 % of control | [14] 94 % of control | dose: 80.0 mg/kg/injection, schedule: Q01DX001 (ip), vehicle: saline 94 % of control | [7] 100 % of control

CCCCCCCCCC(=O)Nc1c(C)cccc1C
inactive: dose: 100.0 mg/kg/injection, schedule: Q04DX002 (ip), vehicle: saline with Tween-80 94 % of control | dose: 200.0 mg/kg/injection, schedule: Q04DX002 (ip), vehicle: saline with Tween-80 111 % of control | dose: 400.0 mg/kg/injection, schedule: Q04DX002 (ip), vehicle: saline with Tween-80 94 % of control

CCCC(C)(COC(N)=O)COC(=O)NC(C)C (configuration not stated)
inactive: [26] 102 % of control | dose: 25.0 mg/kg/injection, schedule: Q04DX003 (ip), vehicle: Klucel (hydroxypropylcellulose) (HPC) 101 % of control | dose: 50.0 mg/kg/injection, schedule: Q01DX009 (ip), vehicle: Klucel (hydroxypropylcellulose) (HPC) 97 % of control | dose: 50.0 mg/kg/injection, schedule: Q04DX003 (ip), vehicle: Klucel (hydroxypropylcellulose) (HPC) 92 % of control | [1] 94 % of control | [2] 101 % of control | [3] 97 % of control | [4] 95 % of control | [5] 88 % of control | [6] 101 % of control

CC(=O)C1=CCC2C3CC(C)=C4CC(O)CCC4(C)C3CCC12C (configuration not stated)
inactive: [18] 94 % of control | [20] 92 % of control | [22] 90 % of control

COc1ccc(COC(=O)Nc2cccc(Cl)c2)cc1OC
inactive: [1] 96 % of control | [3] 102 % of control | [5] 103 % of control

COc1ccccc1/C=N\NC(=O)CCCC(=O)N/N=C/c1ccccc1OC
inactive: [27] 95 % of control | [8] 95 % of control | [9] 90 % of control

O=C(O)C(CCCN1C(=O)c2ccccc2C1=O)N1C(=O)c2ccccc2C1=O (configuration not stated)
inactive: [1] 93 % of control | [3] 94 % of control | [5] 98 % of control

CCOC(=O)c1nnn(-c2cccnc2)c1C
inactive: [28] 99 % of control | dose: 200.0 mg/kg/injection, schedule: Q04DX002 (ip), vehicle: saline 101 % of control | dose: 400.0 mg/kg/injection, schedule: Q04DX002 (ip), vehicle: saline 92 % of control

COc1cc(C(=O)Nc2ccc(N(C)C)cc2)cc(OC)c1OC
inactive: [29] 103 % of control | [13] 108 % of control | [30] 108 % of control | [15] 97 % of control | [31] 97 % of control | [16] 100 % of control | dose: 200.0 mg/kg/injection, schedule: Q01DX009 (ip), vehicle: saline 104 % of control | dose: 200.0 mg/kg/injection, schedule: Q04DX003 (ip), vehicle: saline 103 % of control | dose: 400.0 mg/kg/injection, schedule: Q04DX003 (ip), vehicle: saline 100 % of control

N#CC(N)c1ccccc1 (configuration not stated)
inactive: dose: 75.0 mg/kg/injection, schedule: Q01DX001 (ip), vehicle: saline 103 % of control

Nc1ncnc(N)c1NC(=O)c1ccc(SCc2ccccc2)cc1
inactive: [1] 93 % of control | [5] 88 % of control

O=C(Nc1ccc(N=C(NC2CCCCC2)c2ccccc2)cc1)c1ccc(C(=O)Nc2ccc(N=C(NC3CCCCC3)c3ccccc3)cc2)cc1
inactive: dose: 15.0 mg/kg/injection, schedule: Q01DX Z (ip), vehicle: carboxymethylcellulose (CMC) 101 % of control | dose: 30.0 mg/kg/injection, schedule: Q01DX Z (ip), vehicle: carboxymethylcellulose (CMC) 97 % of control | dose: 60.0 mg/kg/injection, schedule: Q01DX Z (ip), vehicle: carboxymethylcellulose (CMC) 101 % of control | dose: 120.0 mg/kg/injection, schedule: Q01DX Z (ip), vehicle: carboxymethylcellulose (CMC) 97 % of control

c1ccc2c(c1)CCc1ccccc1CN(CCN1CCCC1)C2
inactive: [26] 96 % of control | [1] 99 % of control

COc1ccc(C2(OC)Oc3ccccc3-c3nc4ccccc4nc32)cc1 (configuration not stated)
inactive: [27] 95 % of control | [7] 95 % of control | [8] 87 % of control | [9] 95 % of control

NCCSC(c1ccccc1)(c1ccccc1)c1ccccc1
inactive: [29] 94 % of control | [30] 103 % of control | [31] 107 % of control

CCCCCN1CCCC(OC(=O)N(C)C)C1 (configuration not stated)
inactive: dose: 25.0 mg/kg/injection, schedule: Q04DX002 (ip), vehicle: saline 106 % of control | dose: 50.0 mg/kg/injection, schedule: Q04DX002 (ip), vehicle: saline 103 % of control | [28] 86 % of control

O=C(O)C1(C(=O)O)CCC2(CCCCC2)CC1
inactive: dose: 25.0 mg/kg/injection, schedule: Q01DX009 (ip), vehicle: water 95 % of control | dose: 50.0 mg/kg/injection, schedule: Q01DX009 (ip), vehicle: water 101 % of control

Cc1ccc(S(=O)(=O)NC(=O)N2CCCC2)cc1
inactive: [27] 109 % of control | [7] 97 % of control | [8] 94 % of control | [9] 88 % of control

COC(=O)C(CSCSC)NC(=O)NC1CCCCC1 (configuration not stated)
inactive: [17] 91 % of control | [18] 102 % of control | [19] 91 % of control | [20] 89 % of control | [21] 91 % of control | [22] 91 % of control

Cc1cc(C)c(NC(=O)Nc2cccc(F)c2)c(C)c1
inactive: [1] 96 % of control | [23] 98 % of control | [3] 105 % of control | [24] 102 % of control | [25] 102 % of control

CCOC(=O)C1C(C)NC(C)C(C(=O)OCC)C1c1ccccc1Cl (configuration not stated)
inactive: [1] 97 % of control | [3] 98 % of control | [5] 93 % of control
